Laboratory results from patent US10039718B2, “Use of solid carrier particles to improve the processability of a pharmaceutical agent” (Gilead Sciences, Inc., priority 2008, dated 2018).

Experiment: Water uptake (hygroscopicity) by dynamic vapor sorption (DVS)
Format: physicochemical
Details: 75% RH, 25° C., after 1 hour drying under dry nitrogen
Method: The water uptake for AEROPERL® 300 (fumed silica), the Compound, and a sample of AEROPERL® 300 (fumed silica) loaded with 50.0% (w/w) of the Compound was measured as described below.
The compound of formula (I) was dissolved in ethanol and this solution was poured onto a sample of fumed silica that was equal in weight to the amount of the compound of formula (I). The resulting mixture was thoroughly mixed and the solvent was evaporated to provide the compound/AEROPERL® 300 (fumed silica) material used for the uptake study below.
The hygroscopicity of the samples was measured by dynamic vapor sorption (DVS) on a DVS Advantage-1 instrument from Surface Measurement Systems (SMS, Allentown, Pa.). In a DVS experiment the mass increase/decrease of a sample is measured at various relative humidity (RH) levels at a constant temperature. The instrument consists of a microbalance with one pan containing the sample (typically about 5-10 mg of sample) and an empty pan as a reference, and a water vapor generator to produce the desired relative humidity level. All experiments were run at a constant temperature of 25° C. For all experiments the samples were initially dried under a continuous flow of dry nitrogen for 1 hour to establish the dry mass m0. The relative humidity was then increased to 75% and the increase in mass was recorded as the samples take up water.

water adsorbed (increase in mass at equilibrium): 4.8 % (by weight)
Structure (SMILES): CC(C)c1nc(CN(C)C(=O)NC(CCN2CCOCC2)C(=O)NC(CCC(Cc2ccccc2)NC(=O)OCc2cncs2)Cc2ccccc2)cs1 (stereo not shown) [the Compound]
